From article PMC5620987 (ACS Central Science, 2017) come the findings set out here.

One test relates to α-tubulin-ac. It is filed as cell-based. The conditions noted are these: 6 h, human iPSC-derived NPCs, Western blot. Background: A western blot detects proteins with antibodies after separation by electrophoresis.
Another test relates to H3K9ac. It is filed as cell-based. The conditions noted are these: 6 h, human iPSC-derived NPCs, Western blot.
The test system of the next test is H4K12ac. In kind it is cell-based. The conditions noted are these: 6 h, human iPSC-derived NPCs, Western blot.
The target of a further test is HDAC6 (Rattus norvegicus, UniProt A0A8I6GM68). Nature of the test: Autoradiography with [18F]Bavarostat on rat brain slices. It is filed as binding, Sprague–Dawley rat. The settings on record: sagittal rat brain slices; 10 μM per Figure 4 legend (100 μM per method).

Where two headings read alike, the source gives them in different places.

HDAC6, sequence (A0A8I6GM68 whole entry): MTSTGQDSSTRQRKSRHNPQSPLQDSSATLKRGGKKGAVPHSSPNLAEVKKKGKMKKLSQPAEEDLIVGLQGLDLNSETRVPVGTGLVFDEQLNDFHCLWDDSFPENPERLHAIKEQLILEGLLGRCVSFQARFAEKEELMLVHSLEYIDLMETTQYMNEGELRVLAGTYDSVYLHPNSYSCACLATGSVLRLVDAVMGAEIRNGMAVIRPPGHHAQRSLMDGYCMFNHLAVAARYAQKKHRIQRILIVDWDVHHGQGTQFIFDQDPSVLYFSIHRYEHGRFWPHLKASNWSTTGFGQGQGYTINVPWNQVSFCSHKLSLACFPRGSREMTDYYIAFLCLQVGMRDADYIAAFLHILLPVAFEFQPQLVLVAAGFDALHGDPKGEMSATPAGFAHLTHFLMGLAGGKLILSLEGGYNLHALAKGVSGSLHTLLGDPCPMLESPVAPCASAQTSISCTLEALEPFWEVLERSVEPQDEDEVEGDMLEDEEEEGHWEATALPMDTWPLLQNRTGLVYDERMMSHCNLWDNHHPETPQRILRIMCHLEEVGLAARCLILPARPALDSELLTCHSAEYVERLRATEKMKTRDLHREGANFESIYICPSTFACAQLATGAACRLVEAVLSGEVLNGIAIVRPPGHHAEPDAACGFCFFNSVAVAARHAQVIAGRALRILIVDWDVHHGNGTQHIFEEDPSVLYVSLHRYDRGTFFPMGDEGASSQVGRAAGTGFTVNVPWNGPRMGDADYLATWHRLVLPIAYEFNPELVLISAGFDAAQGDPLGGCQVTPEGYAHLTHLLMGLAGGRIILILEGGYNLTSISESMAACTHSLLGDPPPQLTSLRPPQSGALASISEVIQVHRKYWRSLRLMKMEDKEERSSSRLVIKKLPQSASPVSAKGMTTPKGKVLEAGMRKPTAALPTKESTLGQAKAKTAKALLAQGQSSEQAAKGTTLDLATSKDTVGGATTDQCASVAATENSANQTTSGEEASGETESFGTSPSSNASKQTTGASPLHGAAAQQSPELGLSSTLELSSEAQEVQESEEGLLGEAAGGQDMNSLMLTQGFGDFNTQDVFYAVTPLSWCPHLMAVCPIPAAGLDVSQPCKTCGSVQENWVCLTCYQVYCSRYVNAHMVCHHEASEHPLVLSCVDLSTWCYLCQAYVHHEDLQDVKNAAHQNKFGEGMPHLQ

In the case of `O=C(CCCCCCNC(=O)c1cnc(N(c2ccccc2)c2ccccc2)nc1)NO` [ACY-1215], the “α-tubulin acetylation level (α-tubulin-ac) vs DMSO” value with α-tubulin-ac (5 μM) is recorded as “effectively increased”. The “H3K9ac level vs DMSO” value in the test on H3K9ac (5 μM) is “increased”. Also, the “H4K12ac level vs DMSO” value in the test on H4K12ac (5 μM) is reported as “increased”.
For the molecule `CC(=O)Nc1ccc(C(=O)Nc2ccccc2N)cc1` [CI-994], the “α-tubulin acetylation level (α-tubulin-ac) vs DMSO” value with α-tubulin-ac (10 μM) was “not α-tubulin-ac”. Moreover, the “H3K9ac level vs DMSO” value in the test with H3K9ac (10 μM) was “significant increase”. Also, the “H4K12ac level vs DMSO” value in the test on H4K12ac (10 μM) is “significant increase”.
`CN1CCc2c(c3ccccc3n2Cc2ccc(C(=O)NO)cc2)C1` [Tubastatin A]: in the test with α-tubulin-ac (10 μM), the “α-tubulin acetylation level (α-tubulin-ac) vs DMSO” value was “significantly increased”. In addition, on HDAC6, the “Reduction of bound [18F]Bavarostat radioactivity” value is on record as “comparable level as Bavarostat”.
